Where two headings read alike, the source gives them in different places.
Columns and labels:
human sperm = test: Human sperm motility, transmembrane migration ratio (two-chamber membrane method); assay type: cell-based; details: for inhibition at 25000 µM: beta-blocker 25 mM alone; for inhibition at 100 µM: beta-blocker 0.1 mM alone
Protocol: A simple method for measuring human sperm motility was developed as a modification to the method of C. […] The method used two chambers separated by a membrane and assessed the proportion of spermatozoa, from a small aliquot of semen, that moved across the membrane from the upper to the lower chamber.
The apparatus consisted of an upper and a lower chamber, the upper chamber being the plunger of a 2 ml disposable syringe. A 13 mm diameter Nuclepore membrane filter was bonded to the plunger using dichloromethane.
The mixture was pre-incubated at 37° C. for 10 minutes.
After pre-incubation the mixture was vortexed and 100 μl was pipetted onto the membrane of the upper chamber. The upper chamber was then inserted into the lower chamber, which contained 2 ml of phosphate buffered saline at 37° C.
The relative positions of the two chambers were fixed so that the fluid levels were equal.
The apparatus was then incubated for 90 mins. at 37° C. After this time, the upper chamber was removed and its contents were washed into 1.9 ml phosphate buffered saline containing 50 ul of 10% formalin solution by breaking the membrane. The spermatozoa in the lower chamber were also killed by adding 50 ul of the formalin to the lower chamber.
Finally, the number of spermatozoa in the upper and lower chambers were counted using a haemocytometer. The proportion of spermatozoa that traverse the membrane into the lower chamber is referred to as the transmembrane migration ratio.
Using the same technique, but a different sperm source the control of sperm motility achieved by nonoxynol-9, various beta-blockers and mixtures of nonoxynol-9 and a beta-blocker was measured. […] Again, mM represents millimolar.

[1] = cited from earlier work
[2] = Homo sapiens, Sperm, Table 2, beta-blocker 1.0 mM alone, read-out: % Inhibition of Sperm Motility
[3] = Homo sapiens, Sperm, Table 5, beta-blocker 1 mM alone, read-out: % Inhibition of Sperm Motility
[4] = Homo sapiens, Sperm, Table 3, beta-blocker 1.0 mM alone, read-out: % Inhibition of Sperm Motility

CC(C)NCC(O)COc1cccc2ccccc12 (racemic) [d,1-Propranolol]
inhibition at 1000 µM (human sperm; [2]): 24.6%
inhibition at 1000 µM (human sperm; [3]): 10.5%

C=CCc1ccccc1OC[C@@H](O)CNC(C)C [1-Alprenolol]
inhibition at 1000 µM (human sperm; [2]): 17%
inhibition at 1000 µM (human sperm; [4]): 26.9%

CCCC(=O)Nc1ccc(OCC(O)CNC(C)C)c(C(C)=O)c1 (stereo not drawn) [Acebutolol]
inhibition at 25000 µM (human sperm; Homo sapiens, Sperm, Table 4): 11.3%

CCc1cccc2cc(C(O)CNC(C)(C)C)oc12 (stereo not drawn) [Bufuralol]
apparent octanol/buffer (pH 7.4) partition coefficient [1]: greater than 1
inhibition at 1000 µM (human sperm; Homo sapiens, Sperm, read-out: % Inhibition of Sperm Motility, Table 2, beta-blocker 1.0 mM alone): 28.5%
inhibition at 1000 µM (human sperm; Homo sapiens, Sperm, read-out: % Inhibition of Sperm Motility, Table 3, beta-blocker 1.0 mM alone): 22%

COCCc1ccc(OCC(O)CNC(C)C)cc1 (stereo not drawn) [Metoprolol]
inhibition at 10000 µM (human sperm; Homo sapiens, Sperm, Table 2, beta-blocker 10.0 mM alone): 7.1%
inhibition at 10000 µM (human sperm; Homo sapiens, Sperm, Table 3, beta-blocker 10 mM alone): 0%

C=CCOc1ccccc1OCC(O)CNC(C)C (stereo not drawn) [Oxprenolol]
inhibition at 5000 µM (human sperm; Homo sapiens, Sperm, Table 2, beta-blocker 5.0 mM alone): 3.4%
inhibition at 5000 µM (human sperm; Homo sapiens, Sperm, Table 3, beta-blocker 5 mM alone): 0%

CC(C)(C)NC[C@H](O)COc1ccccc1C1CCCC1 [Penbutolol]
apparent octanol/buffer (pH 7.4) partition coefficient [1]: greater than 1
inhibition at 100 µM (human sperm; Homo sapiens, Sperm, Table 2): 6.2%
inhibition at 100 µM (human sperm; Homo sapiens, Sperm, Table 3): 0%
inhibition at 100 µM (human sperm; Homo sapiens, Sperm, Table 5): 17.8%

CC(C)NCC(O)COc1cccc2[nH]ccc12 (stereo not drawn) [Pindolol]
inhibition at 25000 µM (human sperm; Homo sapiens, Sperm, Table 3): 10.2%

CC(C)(C)NC[C@H](O)COc1nsnc1N1CCOCC1 [Timolol]
inhibition at 25000 µM (human sperm; Homo sapiens, Sperm, Table 4): 4.9%

C=CCc1ccccc1OCC(O)CNC(C)C (stereo not drawn) [alprenolol]
apparent octanol/buffer (pH 7.4) partition coefficient [1]: greater than 1

CC(C)NC[C@@H](O)COc1cccc2ccccc12 [d-Propranolol]
inhibition at 1000 µM (human sperm; Homo sapiens, Sperm, Table 1, d-Propranolol 1.0 mM alone, % of control, read-out: % Inhibition of Sperm Motility): 28%
inhibition at 2500 µM (human sperm; Homo sapiens, Sperm, Table 1, d-Propranolol 2.5 mM alone, % of control): 76.5%
inhibition at 1000 µM (human sperm; [2]): 3.6%
inhibition at 1000 µM (human sperm; [4]): 4%
inhibition at 1000 µM (human sperm; [3]): 0.2%

Nonoxynol-9
% Inhibition of Sperm Motility (human sperm; Table 1, Nonoxynol-9 0.16 mM alone, % of control): 12.5%
% Inhibition of Sperm Motility (human sperm; Table 1, Nonoxynol-9 1.6 mM alone, % of control): 97.7%
% Inhibition of Sperm Motility (human sperm; Table 2, different sperm source, Nonoxynol-9 at its IC50, alone): 50%
% Inhibition of Sperm Motility (human sperm; Table 3, another sperm source, Nonoxynol-9 at its IC50, alone): 50.0%
% Inhibition of Sperm Motility (human sperm; Table 4, another sperm source, Nonoxynol-9 at its IC50, alone): 50.0%

Octoxynol
% Inhibition of Sperm Motility (human sperm; Table 5, another sperm source, Octoxynol at its IC50, alone): 50.0%
